Earlier results on one compound are cited in patent publication US7208517B1, “Endothelin antagonists” (Abbott Labortories, priority 1994, dated 2007).

Molecules are shown by their SMILES.

In data set [1] the test system is post-ischaemic renal vasoconstriction. To be noted: rats; cited from earlier work.
The test system of data set [2] is decrease in cerebral blood flow due to subarachnoid hemorrhage (SAH). To be noted: rats; cited from earlier work.
The test system of a further data set is MAP. To be noted: sodium-depleted squirrel monkeys; dosed orally; cited from earlier work.

In the case of `COc1cccc(Oc2c(NS(=O)(=O)c3ccc(C(C)(C)C)cc3)ncnc2OCCO)c1` [Ro 46–2005], the post-ischaemic renal vasoconstriction result in data set [1] is on record as “prevents post-ischaemic renal vasoconstriction”. Further, in data set [2], the “decrease in cerebral blood flow due to subarachnoid hemorrhage (SAH)” value is recorded as “prevents the decrease in cerebral blood flow due to subarachnoid hemorrhage (SAH)”. In the data set with MAP, the MAP entry is reported as “decreases MAP”.
